Assays:
[1] = biological target: T1, Proto-oncogene tyrosine-protein kinase Src (Homo sapiens, UniProt P12931); experiment: Inhibition of human cSrc
IKr channel [2] = biological target: T2, IKr channel (Oryctolagus cuniculus, UniProt Q28705); experiment: Inhibition of Ikr channel in rabbit ventricular myocytes at 10 uM; assay type: cell-based, Ventricular myocyte
IKr channel [3] = biological target: T2, IKr channel; experiment: Inhibition of Ikr channel in rabbit ventricular myocytes at 30 uM
[4] = biological target: T1, Proto-oncogene tyrosine-protein kinase Src; experiment: Inhibition of human cSrc in COS7 cells by ELISA; assay type: cell-based, COS-7
[5] = Drug level in Sprague-Dawley rat brain at 3 mg/kg, iv after 1 hr; assay type: ADME, organism-based; parameters: dose 3 mg/kg, route intravenous; settings: read-out: Drug uptake
[6] = Ratio of drug level in brain to plasma in Sprague-Dawley rat at 3 mg/kg, iv after 1 hr; assay type: ADME, organism-based; parameters: dose 3 mg/kg, route intravenous; settings: read-out: BPR
[7] = Drug level in Sprague-Dawley rat plasma at 3 mg/kg, iv after 1 hr; assay type: ADME, organism-based; parameters: dose 3 mg/kg, route intravenous
[8] = biological target: Epidermal growth factor receptor (Homo sapiens, UniProt P00533)
[9] = Clearance in Sprague-Dawley rat middle cerebral artery occlusion model at 3 mg/kg, iv; assay type: ADME, organism-based; parameters: dose 3 mg/kg, route intravenous; settings: in vivo
[10] = Half life in Sprague-Dawley rat middle cerebral artery occlusion model at 3 mg/kg, iv; assay type: ADME, organism-based; parameters: dose 3 mg/kg, route intravenous; settings: in vivo
[11] = biological target: Tyrosine-protein kinase SYK (Homo sapiens, UniProt P43405); experiment: Inhibition of Syk
[12] = AUC (0 to infinity) in Sprague-Dawley rat middle cerebral artery occlusion model at 3 mg/kg, iv; assay type: ADME, organism-based; parameters: time infinity, dose 3 mg/kg, route intravenous; settings: in vivo
[13] = Volume of distribution at steady state in Sprague-Dawley rat middle cerebral artery occlusion model at 3 mg/kg, iv; assay type: ADME, organism-based; parameters: dose 3 mg/kg, route intravenous; settings: in vivo, read-out: Vdss
[14] = biological target: Protein kinase C beta type (Homo sapiens, UniProt P05771); experiment: Inhibition of PKCbeta
[15] = biological target: T3, Tyrosine-protein kinase ZAP-70 (Homo sapiens, UniProt P43403); experiment: Inhibition of ZAP
T3 sequence (P43403 whole entry): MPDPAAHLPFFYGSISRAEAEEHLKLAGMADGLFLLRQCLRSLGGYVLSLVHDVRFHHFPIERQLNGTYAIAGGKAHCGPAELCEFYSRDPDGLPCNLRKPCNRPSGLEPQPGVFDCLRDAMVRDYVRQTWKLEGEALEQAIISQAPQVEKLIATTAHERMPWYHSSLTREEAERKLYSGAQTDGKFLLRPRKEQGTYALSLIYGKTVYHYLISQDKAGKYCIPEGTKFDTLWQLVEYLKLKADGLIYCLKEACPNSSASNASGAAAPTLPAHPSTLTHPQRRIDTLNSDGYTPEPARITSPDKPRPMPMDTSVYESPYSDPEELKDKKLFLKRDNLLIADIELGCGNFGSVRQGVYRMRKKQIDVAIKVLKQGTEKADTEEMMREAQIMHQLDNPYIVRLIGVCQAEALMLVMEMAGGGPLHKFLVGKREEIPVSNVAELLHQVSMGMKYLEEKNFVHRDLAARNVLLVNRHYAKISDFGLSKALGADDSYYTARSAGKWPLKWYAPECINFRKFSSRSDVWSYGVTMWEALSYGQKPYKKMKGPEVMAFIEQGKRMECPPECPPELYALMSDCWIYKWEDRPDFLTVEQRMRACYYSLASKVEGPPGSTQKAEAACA

[16] = biological target: Vascular endothelial growth factor receptor 2 (Homo sapiens, UniProt P35968); experiment: Inhibition of KDR
[17] = biological target: Tyrosine-protein kinase Lck (Homo sapiens, UniProt P06239)
Sequence of Tyrosine-protein kinase Lck (P06239 whole entry): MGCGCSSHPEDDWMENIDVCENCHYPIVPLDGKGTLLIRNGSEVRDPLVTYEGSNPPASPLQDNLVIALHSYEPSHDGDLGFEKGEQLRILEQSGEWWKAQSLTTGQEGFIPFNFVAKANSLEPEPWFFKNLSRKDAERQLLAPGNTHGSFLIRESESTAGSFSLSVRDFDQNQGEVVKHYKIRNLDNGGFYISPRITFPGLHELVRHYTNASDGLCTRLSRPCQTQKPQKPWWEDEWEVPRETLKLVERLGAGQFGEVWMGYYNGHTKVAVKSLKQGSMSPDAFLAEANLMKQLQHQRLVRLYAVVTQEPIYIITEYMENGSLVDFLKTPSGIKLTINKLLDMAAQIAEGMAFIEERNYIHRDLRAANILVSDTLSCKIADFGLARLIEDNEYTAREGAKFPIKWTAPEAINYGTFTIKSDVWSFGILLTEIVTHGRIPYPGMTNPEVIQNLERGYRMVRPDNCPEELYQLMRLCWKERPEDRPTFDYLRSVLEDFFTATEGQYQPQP

T2 sequence (Q28705 whole entry): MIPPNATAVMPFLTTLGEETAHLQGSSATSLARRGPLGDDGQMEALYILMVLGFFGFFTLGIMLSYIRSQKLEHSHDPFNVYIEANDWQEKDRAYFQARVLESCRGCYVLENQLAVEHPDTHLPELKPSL
T1 sequence (P12931 2-536 limits assumed): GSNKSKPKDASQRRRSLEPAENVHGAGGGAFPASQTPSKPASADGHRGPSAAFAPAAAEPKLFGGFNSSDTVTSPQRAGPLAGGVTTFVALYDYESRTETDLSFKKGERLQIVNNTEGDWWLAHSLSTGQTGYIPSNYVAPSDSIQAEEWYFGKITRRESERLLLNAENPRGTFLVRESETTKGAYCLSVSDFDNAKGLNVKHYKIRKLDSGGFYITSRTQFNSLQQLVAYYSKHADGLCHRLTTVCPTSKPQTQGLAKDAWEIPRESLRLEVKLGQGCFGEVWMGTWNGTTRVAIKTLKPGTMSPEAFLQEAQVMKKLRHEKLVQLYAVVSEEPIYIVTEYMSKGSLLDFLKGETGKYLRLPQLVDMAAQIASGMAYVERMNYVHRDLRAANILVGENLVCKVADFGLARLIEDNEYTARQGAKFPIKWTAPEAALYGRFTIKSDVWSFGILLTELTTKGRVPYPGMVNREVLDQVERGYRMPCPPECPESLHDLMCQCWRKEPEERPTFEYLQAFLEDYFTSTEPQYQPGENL
Sequence of Protein kinase C beta type (P05771 whole entry): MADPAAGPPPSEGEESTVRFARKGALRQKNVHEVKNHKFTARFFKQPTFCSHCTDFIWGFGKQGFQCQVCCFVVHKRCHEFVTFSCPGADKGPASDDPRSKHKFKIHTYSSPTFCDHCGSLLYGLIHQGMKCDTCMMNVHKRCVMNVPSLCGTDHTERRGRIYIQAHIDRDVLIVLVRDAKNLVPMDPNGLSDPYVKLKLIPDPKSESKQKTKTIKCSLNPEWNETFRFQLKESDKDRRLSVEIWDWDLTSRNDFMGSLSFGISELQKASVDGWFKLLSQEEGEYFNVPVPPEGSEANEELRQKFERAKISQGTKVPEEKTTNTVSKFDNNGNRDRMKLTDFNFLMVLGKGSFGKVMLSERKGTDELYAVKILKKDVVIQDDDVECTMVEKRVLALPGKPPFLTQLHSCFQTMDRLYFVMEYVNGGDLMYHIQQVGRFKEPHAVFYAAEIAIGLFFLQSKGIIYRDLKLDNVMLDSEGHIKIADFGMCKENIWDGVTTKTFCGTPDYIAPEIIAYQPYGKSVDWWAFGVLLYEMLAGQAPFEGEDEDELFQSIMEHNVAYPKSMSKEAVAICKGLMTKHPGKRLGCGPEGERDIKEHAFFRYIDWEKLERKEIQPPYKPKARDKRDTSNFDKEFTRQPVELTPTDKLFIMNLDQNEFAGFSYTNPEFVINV
Sequence of Epidermal growth factor receptor (P00533 whole entry): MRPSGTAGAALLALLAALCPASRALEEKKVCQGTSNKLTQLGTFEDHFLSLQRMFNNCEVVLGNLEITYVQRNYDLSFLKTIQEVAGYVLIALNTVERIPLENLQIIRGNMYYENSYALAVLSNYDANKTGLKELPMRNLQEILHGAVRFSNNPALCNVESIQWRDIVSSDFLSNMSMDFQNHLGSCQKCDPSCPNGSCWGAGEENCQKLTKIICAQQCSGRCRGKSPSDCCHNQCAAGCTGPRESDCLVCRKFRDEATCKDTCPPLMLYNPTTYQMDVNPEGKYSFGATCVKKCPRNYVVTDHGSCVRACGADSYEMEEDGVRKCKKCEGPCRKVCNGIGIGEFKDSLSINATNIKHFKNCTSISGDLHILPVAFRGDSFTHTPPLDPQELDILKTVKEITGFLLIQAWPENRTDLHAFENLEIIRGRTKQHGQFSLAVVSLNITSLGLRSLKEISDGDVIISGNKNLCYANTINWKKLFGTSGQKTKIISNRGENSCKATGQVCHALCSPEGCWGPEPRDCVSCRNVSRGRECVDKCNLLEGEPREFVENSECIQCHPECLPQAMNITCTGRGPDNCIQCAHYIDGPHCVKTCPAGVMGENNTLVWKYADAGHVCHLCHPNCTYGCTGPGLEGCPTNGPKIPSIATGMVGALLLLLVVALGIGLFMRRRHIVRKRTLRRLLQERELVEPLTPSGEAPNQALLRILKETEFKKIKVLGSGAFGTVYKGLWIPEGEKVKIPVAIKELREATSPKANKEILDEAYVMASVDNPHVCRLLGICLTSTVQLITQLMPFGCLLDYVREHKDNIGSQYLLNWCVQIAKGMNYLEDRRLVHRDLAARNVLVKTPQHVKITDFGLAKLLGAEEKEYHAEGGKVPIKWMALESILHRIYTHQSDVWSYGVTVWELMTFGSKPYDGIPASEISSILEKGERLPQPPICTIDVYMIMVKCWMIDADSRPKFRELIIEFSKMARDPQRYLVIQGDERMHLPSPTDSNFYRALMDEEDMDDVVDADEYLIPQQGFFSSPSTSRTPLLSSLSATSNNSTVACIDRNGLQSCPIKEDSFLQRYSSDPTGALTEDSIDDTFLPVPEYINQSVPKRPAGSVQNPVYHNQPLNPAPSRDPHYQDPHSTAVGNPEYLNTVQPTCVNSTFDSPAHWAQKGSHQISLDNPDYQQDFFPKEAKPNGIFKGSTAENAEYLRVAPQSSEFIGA
Sequence of Vascular endothelial growth factor receptor 2 (P35968 whole entry): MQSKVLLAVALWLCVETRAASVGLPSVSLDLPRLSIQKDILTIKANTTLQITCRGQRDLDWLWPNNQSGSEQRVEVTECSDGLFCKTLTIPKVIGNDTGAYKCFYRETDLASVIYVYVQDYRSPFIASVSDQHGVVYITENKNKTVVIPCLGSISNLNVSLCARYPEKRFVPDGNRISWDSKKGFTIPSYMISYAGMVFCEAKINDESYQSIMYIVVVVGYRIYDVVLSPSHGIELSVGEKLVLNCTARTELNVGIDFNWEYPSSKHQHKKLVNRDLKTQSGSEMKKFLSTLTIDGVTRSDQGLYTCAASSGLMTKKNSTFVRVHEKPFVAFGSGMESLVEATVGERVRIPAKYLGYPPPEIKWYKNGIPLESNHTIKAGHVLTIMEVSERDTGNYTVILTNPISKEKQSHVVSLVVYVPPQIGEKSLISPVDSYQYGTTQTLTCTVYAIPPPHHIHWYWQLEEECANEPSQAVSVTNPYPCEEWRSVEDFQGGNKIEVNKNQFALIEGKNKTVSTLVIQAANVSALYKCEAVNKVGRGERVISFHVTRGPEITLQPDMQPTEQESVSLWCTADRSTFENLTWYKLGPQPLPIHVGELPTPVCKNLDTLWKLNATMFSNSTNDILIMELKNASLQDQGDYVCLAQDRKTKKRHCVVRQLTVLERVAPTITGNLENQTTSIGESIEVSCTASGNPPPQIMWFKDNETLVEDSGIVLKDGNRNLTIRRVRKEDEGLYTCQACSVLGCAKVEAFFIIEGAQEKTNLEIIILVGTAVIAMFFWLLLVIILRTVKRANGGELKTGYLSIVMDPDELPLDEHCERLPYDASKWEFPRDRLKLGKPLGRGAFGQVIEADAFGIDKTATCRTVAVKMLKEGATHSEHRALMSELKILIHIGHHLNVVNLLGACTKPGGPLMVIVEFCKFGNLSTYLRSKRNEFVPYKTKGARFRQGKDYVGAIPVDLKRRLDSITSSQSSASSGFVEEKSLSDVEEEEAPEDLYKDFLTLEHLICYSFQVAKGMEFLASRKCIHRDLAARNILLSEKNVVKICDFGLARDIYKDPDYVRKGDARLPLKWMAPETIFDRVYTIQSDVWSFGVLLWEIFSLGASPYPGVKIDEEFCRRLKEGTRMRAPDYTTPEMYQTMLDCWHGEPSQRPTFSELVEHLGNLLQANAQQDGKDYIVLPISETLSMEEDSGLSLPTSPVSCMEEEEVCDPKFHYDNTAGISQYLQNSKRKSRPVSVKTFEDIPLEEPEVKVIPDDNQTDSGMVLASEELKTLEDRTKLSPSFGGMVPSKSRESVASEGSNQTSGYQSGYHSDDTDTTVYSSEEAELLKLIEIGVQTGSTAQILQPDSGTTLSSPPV

COc1cc(Nc2nn3c(NC[C@@H](C)N)cc(C)nc3c2C(N)=O)cc(OC)c1
IC50 [1]: 408 nM | inhibition at 10 µM (IKr channel [2]): 47.9%

COc1cc(Nc2nn3c(N[C@@H](CO)C(C)C)cc(-c4ccccc4)nc3c2C(N)=O)cc(OC)c1
inhibition at 30 µM (IKr channel [3]): 12.4% | IC50 [1]: 68 nM

COc1cc(Nc2nn3c(NC[C@H](C)O)cc(C)nc3c2C(N)=O)cc(OC)c1
IC50 [1]: 9200 nM

COc1cc(Nc2nn3c(N[C@@H](CO)C(C)C)cc(C)nc3c2C(N)=O)cc(OC)c1
IC50 [1]: 432 nM

COc1cc(Nc2nn3c(NCC(C)(C)N)cc(C)nc3c2C(N)=O)cc(OC)c1
IC50 [4]: 900 nM | IC50 [1]: 175 nM | inhibition at 10 µM (IKr channel [2]): 90.7%

COc1cc(Nc2nn3c(N[C@H](CO)Cc4c[nH]c5ccccc45)cc(C4CC4)nc3c2C(N)=O)cc(OC)c1
IC50 [4]: 500 nM | inhibition at 30 µM (IKr channel [3]): 5.4% | concentration at 1 h [5]: 89 ng/g | IC50 [1]: 5 nM | Kp at 1 h [6]: 1.1 | concentration at 1 h [7]: 80 ng/mL

COc1cc(Nc2nn3c(N[C@@H](CO)Cc4ccccc4)cc(C4CC4)nc3c2C(N)=O)cc(OC)c1
IC50 [1]: 12 nM

COc1cc(Nc2nn3c(N[C@H](CO)Cc4ccccc4)cc(C4CC4)nc3c2C(N)=O)cc(OC)c1
IC50 [4]: 100 nM | inhibition at 30 µM (IKr channel [3]): 23.4% | concentration at 1 h [5]: 256 ng/g | IC50 [8]: 2400 nM | clearance [9]: 25 mL/min/kg | IC50 [1]: 3 nM | Kp at 1 h [6]: 0.9 | concentration at 1 h [7]: 273 ng/mL | half-life [10]: 22 min | IC50 [11]: > 10000 nM | AUC(0-inf) [12]: 1990 ng·h/mL | Vd [13]: 0.53 L/kg | IC50 [14]: > 10000 nM | IC50 [15]: > 10000 nM | IC50 [16]: > 10000 nM | IC50 [17]: 7 nM

COc1cc(Nc2nn3c(N[C@H](CO)Cc4cccnc4)cc(C4CC4)nc3c2C(N)=O)cc(OC)c1
IC50 [4]: 100 nM | IC50 [1]: 5 nM | concentration at 1 h [7]: 81 ng/mL

COc1cc(Nc2nn3c(N4CCC[C@@H]4CO)cc(C4CC4)nc3c2C(N)=O)cc(OC)c1
inhibition at 30 µM (IKr channel [3]): 14.2% | IC50 [1]: 9 nM

COc1cc(Nc2nn3c(N4CCC[C@H]4CO)cc(C4CC4)nc3c2C(N)=O)cc(OC)c1
IC50 [1]: 25 nM

COc1cc(Nc2nn3c(N[C@@H](CO)C(C)C)cc(C(C)C)nc3c2C(N)=O)cc(OC)c1
inhibition at 30 µM (IKr channel [3]): 14.6% | IC50 [1]: 41 nM

COc1cc(Nc2nn3c(N[C@@H](CO)C(C)C)cc(C4CC4)nc3c2C(N)=O)cc(OC)c1
IC50 [4]: 100 nM | concentration at 1 h [5]: 126 ng/g | IC50 [1]: 8 nM | Kp at 1 h [6]: 0.4 | concentration at 1 h [7]: 346 ng/mL

COc1cc(Nc2nn3c(N[C@H](CO)C(C)C)cc(C)nc3c2C(N)=O)cc(OC)c1
IC50 [1]: 1210 nM

COc1cc(Nc2nn3c(NC[C@H](C)N)cc(C)nc3c2C(N)=O)cc(OC)c1
IC50 [1]: 2990 nM | inhibition at 10 µM (IKr channel [2]): 99.1%

COc1cc(Nc2nn3c(N[C@@H](C)CO)cc(C)nc3c2C(N)=O)cc(OC)c1
IC50 [1]: 3480 nM

COc1cc(Nc2nn3c(NC[C@@H](C)O)cc(C)nc3c2C(N)=O)cc(OC)c1
IC50 [1]: 6690 nM

Reference: ChEMBL document CHEMBL1143964, “Novel pyrazolo[1,5-a]pyrimidines as c-Src kinase inhibitors that reduce IKr channel blockade” (Bioorg Med Chem, 2008)
